According to patent publication US20160081936A1 (MURRAY AND POOLE ENTERPRISES LIMITED, priority 2013, published 2016):

Columns and labels:
[1] = test system: patients with a first episode of acute pericarditis; details: conventional treatment with aspirin, or the same plus colchicine 0.5 to 1.0 mg/day for 3 months; p=0.004; cited from earlier work
[2] = test system: patients with a first episode of recurrent pericarditis; details: conventional treatment with aspirin alone, or the same plus colchicine 0.5-1.0 mg/d for 6 months; cited from earlier work
[3] = test system: patients with stable coronary disease; test: LoDoCo trial: colchicine 0.5 mg/day added to standard secondary prevention therapy; assay type: in vivo, human
Protocol: This study is described in PCT/AU2013/001261 and is hereby incorporated in its entirety by reference.
All outcomes were evaluated by an experienced adjudicator blinded to the treatment allocation.
Patients with a history of bypass surgery were only eligible if they had undergone bypass surgery more than 10 years before, or had angiographic evidence of graft failure or had undergone stenting since their bypass surgery. All patients signed informed consent before randomization.
The randomization sequence was computer generated, kept concealed from the investigators at all times and was managed by a research assistant who had no involvement in the evaluation or management of study patients. […] Patients who were intolerant to therapy remained in the study, and were followed in the usual manner and included in the primary intention to treat analysis.
The drug was dispensed by their usual chemist, and if requested, patients were reimbursed for the cost of these scripts. All other treatments were continued as usual.
Patient compliance with treatment and outcome data were collected at routine follow up visits and at the time of any unplanned hospital admission. An acute coronary syndrome (ACS) was defined as either (a) Acute Myocardial Infarction (AMI), as evidenced by acute ischemic chest pain associated with a rise in serum troponin above the upper limit of normal or (b) Unstable Angina (UA), as evidenced by a recent acceleration of the patient's angina unassociated with a rise in serum troponin but associated with angiographic evidence of a change in the patient's coronary anatomy. (Unstable Angina Braunwald classification types IB and IIB). The ACS was characterized as being stent-related if there was evidence of significant in-stent stenosis or acute stent thrombosis. Out of Hospital Cardiac Arrest was defined as either a sudden death as evidenced on the patient's death certificate, or a non-fatal out of hospital cardiac arrest, defined as a recovery from sudden collapse associated with documented asystole, ventricular tachycardia or ventricular fibrillation. Noncardioembolic ischemic stroke was defined as CT or MRI proven ischemic stroke adjudged by the treating neurologist as not being due to atrial fibrillation or intracranial hemorrhage.
The primary efficacy outcome was the composite, ACS, fatal or non-fatal out of hospital cardiac arrest or non-cardio-embolic ischemic stroke. Secondary outcomes were (a) individual components of the primary outcome, and (b) the components of ACS unrelated to stent disease.
The pre-specified study duration was a minimum follow up of two years in all patients. Accordingly the study was closed on May 31, 2012. During May, all living patients were contacted by phone to collect compliance and outcome data from the last date of follow-up.
Summary statistics, including mean and standard deviation were calculated for all baseline characteristics by treatment arm. All time to event outcomes were calculated in days by subtracting the date of randomization from either: (1) the date of event or death; or (2) the trial termination date for those patients not experiencing the defined event. As pre-specified, the primary efficacy analysis was based on the intention-to-treat principle. The intention-to-treat analysis included all randomized subjects and all events during the time from randomization to the trial termination. Trial termination date was fixed as May 31, 2012. A secondary pre-specified on-treatment analysis was also performed, based on patients who were both tolerant and compliant to therapy beyond the first month of randomization.
The time-to-first-event for all outcomes is presented using a Kaplan-Meier plot. […] The secondary outcomes were analysed similarly.

[4] = test system: patients with stable coronary disease; details: 0.5 mg/day in addition to statins and other standard secondary prevention therapies; Nidorf et al., JACC 2013; cited from earlier work

SMILES: CC(=O)Oc1ccccc1C(=O)O [aspirin]
- recurrence rate at 18 months [1]: 32.3%
- recurrence rate, actuarial rates at 18 months [2]: 50.6%

SMILES: COc1cc2c(c(OC)c1OC)-c1ccc(OC)c(=O)cc1[C@@H](NC(C)=O)CC2 [colchicine, N[5,6,7,9-tetrahydro-1,2,3,10-tetratmethoxy 9-oxobenzo[a]heptalen-7-yl],(S)-acetamide]
- deaths ([3]; colchicine group (282), all of non-cardiac causes, 10 in control group): 4 patients
- primary outcome, number needed to treat ([3]; intention to treat): 11
- ACS unrelated to stent disease associated with UA, patients ([3]; intention to treat, 0.5 mg/day): 1.8%
- ACS unrelated to stent disease associated with an AMI, patients ([3]; intention to treat, 0.5 mg/day): 1.4%
- patients presenting with an ACS ([3]; intention to treat, 0.5 mg/day): 4.6%
- patients presenting with an ACS unrelated to stent disease ([3]; intention to treat, 0.5 mg/day): 3.2%
- primary outcome (composite of ACS, fatal or non-fatal out of hospital cardiac arrest or non-cardio-embolic ischemic stroke), patients with event ([3]; intention to treat, 0.5 mg/day, median follow up 36 months): 5.3%
- events in patients compliant and tolerant to therapy beyond the first month ([3]; on-treatment analysis, 0.5 mg/day): 4.5%
- out of hospital cardiac arrest and non-cardio-embolic ischemic stroke ([3]; treatment group vs control): reduced
- prevention of cardiovascular events in patients with stable coronary disease [4]: appeared effective
- recurrence rate at 18 months [1]: 10.7%
- recurrence rate, actuarial rates at 18 months [2]: 24.0%
